Measurements published in patent publication US4795639A, “Potentiating formulations” (priority 1971, dated 1989).

Columns and labels:
Pseudomonas aeruginosa = assay: zone inhibition, pteridine in agar, drugs in well; format: cell-based; details: for complete zone inhibition, SMX (300) / zone including partial inhibition, SMX (300): SMX 300 μg/ml; for zone including partial inhibition, TMP (30): TMP 30 μg/ml; for complete zone inhibition, TMP + SMX (5) (100) / zone including partial inhibition, TMP + SMX (5) (100): TMP 5 + SMX 100 μg/ml
Procedure: (§1) The pteridine was included in a soya peptone medium of low thymidine content (Wellcotest Sensitivity Test Agar) contained in a Petri-dish and the other component(s) added to the well resulting from the removal of a small plug from the medium. The surface of the medium was inoculated with the test organism and then incubated.

Staphylococcus aureus [1] = assay: zone inhibition, pteridine in agar, drugs in well; format: cell-based; details: for complete zone inhibition, SMX (300) / zone including partial inhibition, SMX (300): SMX 300 μg/ml; for complete zone inhibition, TMP + SMX (5) (100) / zone including partial inhibition, TMP + SMX (5) (100): TMP 5 + SMX 100 μg/ml
Procedure: as §1

Proteus vulgaris CN 329 = assay: testing discs on standard nutrient medium; format: cell-based; details: Proteus vulgaris, CN329; read-out: Size of zone in cm (×6 magnification)
Staphylococcus aureus [2] = assay: M.I.C. in Wellcome Nutrient Agar, 18 hours at 37° C.; format: cell-based
E. acervulina = assay: coccidiosis screening test in chicks, E. acervulina; format: in vivo
Procedure: "Screening tests" were performed to establish the effectiveness of the compounds of formula (I) both alone and in combination with a competitor and or an inhibitor and to determine the most useful levels of relative concentrations of each component in combatting or suppressing coccidiosis.
Groups of Ranger cockerels, housed in small, heated cages with wire floors situated in enironmentally controlled isolation rooms, were infected orally with sporulated oocysts of the Eimeria spp such as E. tenella or E. acervulina. The appropriate test compound(s), (DMHP, sulphaquinoxaline (SQX) or diaveridine (DV) or any combination of these) were incorporated in a small quantity of specially formulated laboratory ration deficient in Vitamin K (`L.D.4 mash`), as a 1/10 pre-mix, which was then mixed into the diet on a horizontal roller drum mixed and administered to groups of chicks one day prior to infection, leaving some groups as untreated controls. […]
The amount of damage, marked by lesions in the caecal walls was investigated in those chicks that died during the course of the experiment, and in those sacrificed on the final day of administration, and compared with the untreated controls as a basis for the determination of therapeutic activity. In addition the mortality rate and the percentage weight gains in the various groups were assessed. […]

[3] = pteridine 3 μg/ml, TMP 30 μg/ml
[4] = pteridine 10 μg/ml, TMP 30 μg/ml

SMILES: CC1(C)Nc2nc(N)nc(O)c2N=C1CO [DMHP, 2-amino-4-hydroxy-6-hydroxymethyl-7,7-dimethyl-7,8-dihydropteridine]
- complete zone inhibition, SMX (300) (Pseudomonas aeruginosa; pteridine 3 μg/ml): 9.0 centimeters
- zone including partial inhibition, SMX (300) (Pseudomonas aeruginosa; pteridine 3 μg/ml): 14.0 centimeters
- zone including partial inhibition, TMP (30) (Pseudomonas aeruginosa; pteridine 3 μg/ml): 5.0 centimeters
- complete zone inhibition, TMP + SMX (5) (100) (Pseudomonas aeruginosa; pteridine 3 μg/ml): 8.0 centimeters
- zone including partial inhibition, TMP + SMX (5) (100) (Pseudomonas aeruginosa; pteridine 3 μg/ml): 11.0 centimeters
- complete zone inhibition, SMX (300) (Pseudomonas aeruginosa; pteridine 10 μg/ml): 15.0 centimeters
- zone including partial inhibition, SMX (300) (Pseudomonas aeruginosa; pteridine 10 μg/ml): 20.0 centimeters
- zone including partial inhibition, TMP (30) (Pseudomonas aeruginosa; pteridine 10 μg/ml): 6.0 centimeters
- complete zone inhibition, TMP + SMX (5) (100) (Pseudomonas aeruginosa; pteridine 10 μg/ml): 12.0 centimeters
- zone including partial inhibition, TMP + SMX (5) (100) (Pseudomonas aeruginosa; pteridine 10 μg/ml): 15.0 centimeters
- complete zone inhibition, SMX (300) (Staphylococcus aureus [1]; pteridine 3 μg/ml): 4.0 centimeters
- zone including partial inhibition, SMX (300) (Staphylococcus aureus [1]; pteridine 3 μg/ml): 10.0 centimeters
- complete zone inhibition, TMP (30) (Staphylococcus aureus [1]; [3]): 8.0 centimeters
- zone including partial inhibition, TMP (30) (Staphylococcus aureus [1]; [3]): 10.0 centimeters
- complete zone inhibition, TMP + SMX (5) (100) (Staphylococcus aureus [1]; pteridine 3 μg/ml): 10.0 centimeters
- zone including partial inhibition, TMP + SMX (5) (100) (Staphylococcus aureus [1]; pteridine 3 μg/ml): 12.0 centimeters
- complete zone inhibition, SMX (300) (Staphylococcus aureus [1]; pteridine 10 μg/ml): 5.0 centimeters
- zone including partial inhibition, SMX (300) (Staphylococcus aureus [1]; pteridine 10 μg/ml): 12.0 centimeters
- complete zone inhibition, TMP (30) (Staphylococcus aureus [1]; [4]): 8.5 centimeters
- zone including partial inhibition, TMP (30) (Staphylococcus aureus [1]; [4]): 10.5 centimeters
- complete zone inhibition, TMP + SMX (5) (100) (Staphylococcus aureus [1]; pteridine 10 μg/ml): 10.5 centimeters
- zone including partial inhibition, TMP + SMX (5) (100) (Staphylococcus aureus [1]; pteridine 10 μg/ml): 12.0 centimeters
- complete zone inhibition, TMP (30) (Staphylococcus aureus [1]; pteridine 30 μg/ml in medium, TMP 30 μg/ml in well, about 6× magnification): 11.0 centimeters
- complete zone inhibition, SMX (300) (Staphylococcus aureus [1]; pteridine 30 μg/ml): 9.0 centimeters
- zone including partial inhibition, SMX (300) (Staphylococcus aureus [1]; pteridine 30 μg/ml): 14.5 centimeters
- zone including partial inhibition, TMP (30) (Staphylococcus aureus [1]; pteridine 30 μg/ml, TMP 30 μg/ml): 14.0 centimeters
- complete zone inhibition, TMP + SMX (5) (100) (Staphylococcus aureus [1]; pteridine 30 μg/ml): 11.5 centimeters
- zone including partial inhibition, TMP + SMX (5) (100) (Staphylococcus aureus [1]; pteridine 30 μg/ml): 14.5 centimeters
- zone of inhibition at 100 µg/disc (Proteus vulgaris CN 329): 0 mm
- Sulphamethoxazole increase in Activity (Staphylococcus aureus [2]; Conc. of DMHP 3.1 μg/ml): 1 ×
- Trimethoprim in the Presence of × 20 sulphamethoxazol increase in Activity (Staphylococcus aureus [2]; Conc. of DMHP 3.1 μg/ml): 10 ×
- Trimethoprim increase in Activity (Staphylococcus aureus [2]; Conc. of DMHP 3.1 μg/ml): 10 ×
- Sulphamethoxazole increase in Activity (Staphylococcus aureus [2]; Conc. of DMHP 6.2 μg/ml): 10 ×
- Trimethoprim in the Presence of × 20 sulphamethoxazol increase in Activity (Staphylococcus aureus [2]; Conc. of DMHP 6.2 μg/ml): 30 ×
- Trimethoprim increase in Activity (Staphylococcus aureus [2]; Conc. of DMHP 6.2 μg/ml): 30 ×
- Sulphamethoxazole increase in Activity (Staphylococcus aureus [2]; Conc. of DMHP 25 μg/ml): 100 ×
- Trimethoprim in the Presence of × 20 sulphamethoxazol increase in Activity (Staphylococcus aureus [2]; Conc. of DMHP 25 μg/ml): > 300 ×
- Trimethoprim increase in Activity (Staphylococcus aureus [2]; Conc. of DMHP 25 μg/ml): 300 ×
- Total Oocysts × 10^6 Days 5 & 6 (E. acervulina; Expt. 8, 5,000,000 oocysts, SQX/DV/DMHP p.p.m: b497-499 -/-/30, 10, 5, b500 10/10/-, b502 10/10/30, b504 10/10/10, b506 10/10/5): 0.0 × 10^6
- activity alone against moderate infection with E. acervulina (E. acervulina; concentrations of 250 and 90 p.p.m): active alone
